Data set [1] deals with Mycobacterium tuberculosis. The data set can be described thus: Antitubercular activity against Mycobacterium tuberculosis H37Rv ATCC 27294 assessed as bacterial growth inhibition incubated for 7 days in 7H9 medium by alamar blue staining based microplate fluorometric analysis. The data set is classed as functional. The conditions noted are these: H37Rv ATCC 27294, 168 h, time 7 day. For orientation: Resazurin is reduced to fluorescent resorufin, in cell work by metabolically active cells.

Data set [2] can be described thus: Water solubility of the compound in 80% acetronitrile/20% water meausred after 24 hrs by HPLC-UV analysis. The data set is classed as physicochemical. The conditions noted are these: 80% acetonitrile/20% water.
A short description of data set [3]: Half life in female ICR mouse at 25 mg/kg, po administered as single dose measured upto 24 hrs by HPLC analysis. The data set is classed as ADME, organism-based. The conditions noted are these: in vivo.
Data set [4] can be described thus: Tmax in female ICR mouse at 25 mg/kg, po administered as single dose measured upto 24 hrs by HPLC analysis. The data set is classed as ADME, organism-based. The settings on record: in vivo.
The nature of data set [5]: Cmax in female ICR mouse at 25 mg/kg, po administered as single dose measured upto 24 hrs by HPLC analysis. The data set is classed as ADME, organism-based. The settings on record: in vivo.
The nature of data set [6]: AUC (0 to infinity) in female ICR mouse at 25 mg/kg, po administered as single dose measured upto 24 hrs by HPLC analysis. The data set is classed as ADME, organism-based. The settings on record: in vivo.
The nature of data set [7]: Cytotoxicity against African green monkey Vero cells assessed as reduction in cell viability incubated for 72 hrs by MTT assay. The data set is classed as toxicity, cell-based. The conditions noted are these: chlorocebus sabaeus. (In general: Tetrazolium assays rely on reduction of a dye to a coloured formazan, in cell work by metabolically active cells.)
For the next data set, the target named is hERG (KCNH2) (Homo sapiens, UniProt Q12809). The data set can be described thus: Inhibition of human ERG expressed in HEK293 cells at 10 uM by electrophysiological method relative to control. The data set is classed as toxicity, cell-based. The conditions noted are these: HEK293 cells expressing hERG. Background: Block of hERG is tested as a sign of cardiac risk.

Data set [8] in a line: Acute toxicity in female ICR mouse assessed as animal death at 1000 mg/kg, po administered as single dose measured for 7 days. The data set is classed as organism-based. The conditions noted are these: in vivo, 168 h, time 7 day.
Data set [9] in a line: Acute toxicity in female ICR mouse assessed as change in body weight at 1000 mg/kg, po administered as single dose measured for 7 days. The data set is classed as organism-based. The settings on record: in vivo, 168 h, time 7 day.
Data set [10] in a line: Acute toxicity in female ICR mouse assessed as lethal dose administered as single oral dose measured for 7 days. The conditions noted are these: in vivo, time 7 day.
Data set [11] in a line: Water solubility of the compound in 60% acetronitrile/40% water meausred after 24 hrs by HPLC-UV analysis. The data set is classed as physicochemical. The conditions noted are these: 60% acetonitrile/40% water.

Results on 22 molecules are retold here after ChEMBL document CHEMBL6127042, “Design, synthesis and antimycobacterial activity of novel benzothiazinones with improved water solubility” (Eur J Med Chem, 2024).

Converted amounts (≈) assume the structure as drawn.

Chain of hERG (KCNH2) (Q12809 whole entry): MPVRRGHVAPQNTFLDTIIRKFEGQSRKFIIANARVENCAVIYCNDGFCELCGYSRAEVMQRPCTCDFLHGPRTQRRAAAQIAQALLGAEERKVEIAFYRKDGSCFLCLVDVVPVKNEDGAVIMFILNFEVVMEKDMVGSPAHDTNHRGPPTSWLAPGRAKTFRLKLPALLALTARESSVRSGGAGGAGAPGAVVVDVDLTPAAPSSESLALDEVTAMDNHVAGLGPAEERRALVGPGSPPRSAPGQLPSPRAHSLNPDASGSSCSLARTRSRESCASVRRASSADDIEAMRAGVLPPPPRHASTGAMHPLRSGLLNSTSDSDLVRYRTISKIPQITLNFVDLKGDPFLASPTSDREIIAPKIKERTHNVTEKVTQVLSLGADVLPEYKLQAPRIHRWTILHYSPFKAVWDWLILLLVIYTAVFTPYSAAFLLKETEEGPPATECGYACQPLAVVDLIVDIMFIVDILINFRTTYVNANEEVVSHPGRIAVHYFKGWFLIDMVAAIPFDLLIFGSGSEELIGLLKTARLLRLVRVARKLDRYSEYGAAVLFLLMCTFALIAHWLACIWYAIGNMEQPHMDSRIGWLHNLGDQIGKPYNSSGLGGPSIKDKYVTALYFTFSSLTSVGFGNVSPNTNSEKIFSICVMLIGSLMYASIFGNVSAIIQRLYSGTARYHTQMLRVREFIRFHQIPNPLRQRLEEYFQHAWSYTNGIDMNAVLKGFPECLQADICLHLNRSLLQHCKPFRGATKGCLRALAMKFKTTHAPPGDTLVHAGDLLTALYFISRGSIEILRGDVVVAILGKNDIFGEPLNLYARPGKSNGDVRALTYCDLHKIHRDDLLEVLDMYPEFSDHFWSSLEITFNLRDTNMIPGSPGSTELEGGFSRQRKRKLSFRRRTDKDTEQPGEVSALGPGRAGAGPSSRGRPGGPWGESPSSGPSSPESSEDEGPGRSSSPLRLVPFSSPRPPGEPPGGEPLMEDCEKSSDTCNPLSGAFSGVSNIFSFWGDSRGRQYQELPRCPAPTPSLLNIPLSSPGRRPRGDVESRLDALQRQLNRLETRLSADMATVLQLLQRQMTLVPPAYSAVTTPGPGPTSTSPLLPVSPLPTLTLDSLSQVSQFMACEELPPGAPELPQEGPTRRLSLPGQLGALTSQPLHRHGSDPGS

Turning to `CON=C1CCC(CN2CCN(c3nc(=O)c4cc(C(F)(F)F)cc([N+](=O)[O-])c4s3)CC2)CC1` (configuration not stated), the minimal inhibitory concentration (MIC) in [1] is less than 0.035 µM. The molecule further came in with a solubility at 24 h in [2] of 1.6 µg/mL (≈ 3.2 µM). The molecule also had a half-life in data set [3] of 5.24 h. In data set [4], the Tmax came out at 0.69 h. This molecule showed a Cmax in data set [5] of 8370 ng/mL. The same molecule registered an area under the curve AUC(0-inf) in data set [6] of 16900 ng·h/mL.
Consider `O=C(O)CNC(=O)CCON=C1CCC(CN2CCN(c3nc(=O)c4cc(C(F)(F)F)cc([N+](=O)[O-])c4s3)CC2)CC1` (configuration not stated), for which the minimal inhibitory concentration (MIC) in data set [1] worked out at 0.338 µM (≈ 0.208 µg/mL). Moreover, the CC50 at 72 h in data set [7] is greater than 104 µM.
Take `CC(C)(C)OC(=O)NCCON=C1CCC(CN2CCN(c3nc(=O)c4cc(C(F)(F)F)cc([N+](=O)[O-])c4s3)CC2)CC1` (configuration not stated): in data set [1], the MIC was 0.033 µM (≈ 0.0207 µg/mL). Further, the CC50 at 72 h in [7] is greater than 102 µM. The same molecule showed a solubility at 24 h in data set [2] of 2.4 µg/mL (≈ 3.82 µM).
Take `CC(C)(C)OC(=O)CNC(=O)CCON=C1CCC(CN2CCN(c3nc(=O)c4cc(C(F)(F)F)cc([N+](=O)[O-])c4s3)CC2)CC1` (configuration not stated): the minimal inhibitory concentration (MIC) in data set [1] was less than 0.026 µM. For the same molecule, the 50% cytotoxic concentration (CC50) at 72 h in data set [7] is greater than 95 µM.
Consider `O=C(O)CCON=C1CCC(CN2CCN(c3nc(=O)c4cc(C(F)(F)F)cc([N+](=O)[O-])c4s3)CC2)CC1` (configuration not stated), for which, in data set [1], the MIC turned out to be 0.214 µM (≈ 0.119 µg/mL). The CC50 at 72 h in data set [7] is greater than 115 µM.
For `C[C@H](NC(=O)CON=C1CCC(CN2CCN(c3nc(=O)c4cc(C(F)(F)F)cc([N+](=O)[O-])c4s3)CC2)CC1)C(=O)O` (some centres not stated), the MIC in [1] was 2.9 µM (≈ 1.79 µg/mL).
Turning to `O=C(O)CON=C1CCC(CN2CCN(c3nc(=O)c4cc(C(F)(F)F)cc([N+](=O)[O-])c4s3)CC2)CC1` (configuration not stated), the minimal inhibitory concentration (MIC) in data set [1] was less than 0.029 µM. Besides, the half-maximal cytotoxic concentration (CC50) at 72 h in data set [7] is greater than 118 µM. Also, in data set [2], the solubility at 24 h came to 1200 µg/mL (≈ 2210 µM). In [3], the half-life was 3.06 h. Further, the time to peak (Tmax) in [4] is 0.33 h. Further, the Cmax in [5] is 770 ng/mL. This molecule registered an AUC(0-inf) in data set [6] of 1410 ng·h/mL. The molecule also gave an inhibition at 10 µM on hERG (KCNH2) of 5.8%. Further, the Activity entry in data set [8] is “Non-Toxic”; in data set [9] it was “Toxic”. The median lethal dose (LD50) at 168 h in [10] is greater than 1000 mg/kg.
Consider `CC(C)(ON=C1CCC(CN2CCN(c3nc(=O)c4cc(C(F)(F)F)cc([N+](=O)[O-])c4s3)CC2)CC1)C(=O)NCC(=O)O` (configuration not stated), for which the MIC in data set [1] was 0.653 µM (≈ 0.41 µg/mL). The molecule further had a solubility at 24 h in data set [2] of 530 µg/mL (≈ 843 µM).
For `CC(C)(C)OC(=O)CNC(=O)C(C)(C)ON=C1CCC(CN2CCN(c3nc(=O)c4cc(C(F)(F)F)cc([N+](=O)[O-])c4s3)CC2)CC1` (configuration not stated), the MIC in data set [1] worked out at 0.086 µM (≈ 0.0589 µg/mL). For the same molecule, the CC50 at 72 h in [7] was greater than 94 µM. The molecule also returned a solubility at 24 h in data set [2] of 4 µg/mL (≈ 5.84 µM).
Turning to `NCCON=C1CCC(CN2CCN(c3nc(=O)c4cc(C(F)(F)F)cc([N+](=O)[O-])c4s3)CC2)CC1` (configuration not stated), in data set [1], the minimal inhibitory concentration (MIC) was found to be 0.091 µM (≈ 0.0481 µg/mL). In addition, the solubility at 24 h in data set [11] was greater than 2000 µg/mL. In data set [3], this molecule gave a half-life of 3.6 h. Also, the time of peak concentration (Tmax) in data set [4] amounted to 1 h. This molecule also yielded a maximum concentration (Cmax) in data set [5] of 798 ng/mL. The same molecule had an AUC(0-inf) in [6] of 3840 ng·h/mL. The same molecule returned an inhibition at 10 µM at hERG (KCNH2) of 5.66%. The Activity result in data set [8] is listed as “Non-Toxic”; in data set [9], “Toxic”. For the same molecule, the LD50 at 168 h in data set [10] was greater than 1000 mg/kg.
For the molecule `C[C@H](NC(=O)CON=C1CCC(CN2CCN(c3nc(=O)c4cc(C(F)(F)F)cc([N+](=O)[O-])c4s3)CC2)CC1)C(=O)OC(C)(C)C` (some centres not stated), the MIC in [1] amounted to 0.181 µM (≈ 0.121 µg/mL). For the same molecule, the CC50 at 72 h in [7] is greater than 95 µM.
Regarding `CC(C)(C)OC(=O)CNC(=O)CON=C1CCC(CN2CCN(c3nc(=O)c4cc(C(F)(F)F)cc([N+](=O)[O-])c4s3)CC2)CC1` (configuration not stated), the MIC in data set [1] amounted to 0.044 µM (≈ 0.0289 µg/mL). For the same molecule, the CC50 at 72 h in data set [7] was greater than 98 µM.
Regarding `COC(=O)CNC1CCC(CN2CCN(c3nc(=O)c4cc(C(F)(F)F)cc([N+](=O)[O-])c4s3)CC2)CC1` (configuration not stated), in data set [1], the MIC was 1.05 µM (≈ 0.573 µg/mL).
`O=C(O)CNC1CCC(CN2CCN(c3nc(=O)c4cc(C(F)(F)F)cc([N+](=O)[O-])c4s3)CC2)CC1` (configuration not stated): the MIC in data set [1] was greater than 18.9 µM. In data set [7], the CC50 at 72 h was greater than 121 µM.
With `C[C@H](NC(=O)C(C)(C)ON=C1CCC(CN2CCN(c3nc(=O)c4cc(C(F)(F)F)cc([N+](=O)[O-])c4s3)CC2)CC1)C(=O)O` (some centres not stated), the MIC in data set [1] was determined as 1.33 µM (≈ 0.853 µg/mL).
As for `C[C@H](NC(=O)C(C)(C)ON=C1CCC(CN2CCN(c3nc(=O)c4cc(C(F)(F)F)cc([N+](=O)[O-])c4s3)CC2)CC1)C(=O)OC(C)(C)C` (some centres not stated), the MIC in [1] is less than 0.023 µM. Besides, the CC50 at 72 h in data set [7] is greater than 92 µM.
For the molecule `CC(C)(ON=C1CCC(CN2CCN(c3nc(=O)c4cc(C(F)(F)F)cc([N+](=O)[O-])c4s3)CC2)CC1)C(=O)O` (configuration not stated), in data set [1], the MIC came to 0.114 µM (≈ 0.0652 µg/mL). Also, the CC50 at 72 h in data set [7] was greater than 112 µM. In addition, the concentration in solution in [2] (solubility at 24 h) came to 490 µg/mL (≈ 857 µM).
`O=C(O)CNC(=O)CON=C1CCC(CN2CCN(c3nc(=O)c4cc(C(F)(F)F)cc([N+](=O)[O-])c4s3)CC2)CC1` (configuration not stated): in [1], the minimal inhibitory concentration (MIC) came to 1.54 µM (≈ 0.925 µg/mL).
In the case of `CC(C)(C)OC(=O)CCON=C1CCC(CN2CCN(c3nc(=O)c4cc(C(F)(F)F)cc([N+](=O)[O-])c4s3)CC2)CC1` (configuration not stated), the minimal inhibitory concentration (MIC) in data set [1] is less than 0.026 µM. The CC50 at 72 h in [7] is greater than 104 µM.
Consider `NNC(=O)c1ccncc1` [ISONIAZID], for which the MIC in data set [1] was 0.342 µM (≈ 0.0469 µg/mL).
For the molecule `O=c1nc(N2CCN(CC3CCCCC3)CC2)sc2c([N+](=O)[O-])cc(C(F)(F)F)cc12` [MACOZINONE], the minimal inhibitory concentration (MIC) in data set [1] was less than 0.035 µM. Moreover, the CC50 at 72 h in data set [7] is greater than 140 µM. This molecule also displayed a solubility at 24 h in data set [2] of 1.1 µg/mL (≈ 2.41 µM). In data set [3], this molecule showed a half-life of 6.43 h. In addition, the time to peak (Tmax) in data set [4] was determined as 2 h. Moreover, the maximum concentration (Cmax) in [5] turned out to be 295 ng/mL. Further, the total exposure AUC(0-inf) in data set [6] was found to be 2310 ng·h/mL.
Turning to `CO[C@H]1/C=C/O[C@@]2(C)Oc3c(C)c(O)c4c(O)c(c(/C=N/N5CCN(C)CC5)c(O)c4c3C2=O)NC(=O)/C(C)=C\C=C\[C@H](C)[C@H](O)[C@@H](C)[C@@H](O)[C@@H](C)[C@H](OC(C)=O)[C@@H]1C` [RIFAMPIN], in [1], the minimum inhibitory concentration (MIC) was determined as 0.04 µM (≈ 0.0329 µg/mL).

By MIC is commonly meant the smallest concentration in the dilution series that meets the test's criterion for growth inhibition. For orientation: solubility means how much of the substance goes into solution per volume. Broadly, the half-life is the time needed for the level to fall by half in the phase considered. The Tmax is the time at which the peak concentration occurs. By Cmax is commonly meant the peak of the concentration-time curve. The term AUC(0-inf) denotes the area under the concentration-time curve extrapolated to infinity. The term CC50 denotes the concentration at which the toxic effect on the cells reaches its halfway point. In general, inhibition refers to the drop in the measured response relative to a control, in per cent. The LD50 is the dose at which mortality reaches 50%.
